Values of other authors, collected in patent US20260240147A1, “MANCOZEB NANOSUSPENSION AND PREPARATION METHOD THEREOF” (priority 2022, published 2026).

For “manganese ethylene bis(dithiocarbamate) polymeric complex with zinc salt coordination compound [mancozeb]”, the “solubility in most organic solvents” value is listed as “insoluble” and the solubility in water (pH 7.5, 25° C.) is listed as 6.2 µg/mL.
